Results: article PMC11571015, “Hybrids of Membrane-Translocating Antimicrobial Peptides Show Enhanced Activity through Membrane Permeabilization” (ACS Medicinal Chemistry Letters, 2024)
In brackets after ≈: the same amount, converted by molar mass.

How the values were obtained:
E. coli = assay type: cell-based, E. coli (Top10 Strain); conditions: median MIC; microbroth dilution, 1:2 serial dilution 18.2 to 1.8x10-2 μM, 4 × 10^6 CFU/mL, 1 h 37°C in wash buffer pH 7.4, then TSB overnight (18-24 h), OD600; triplicate per plate; mixture: each peptide at the reported concentration
Experimental: (§1) Supplemental Information for Trevellin et al.
(§2) Peptide design and preparation […]
(§3) synthesized by GenScript (Piscataway, NJ) at >95% purity determined by HPLC and dissolved in DI water. Concentrations were measured by triplicate tryptophan absorbance readings at 280 nm (ε=5700 M–1cm–1, l=1 cm) using a ThermoScientific NanoDrop 2000 (Waltham, MA). Buforin II (BF2) included an F10W mutation used in many previous studies1-5 to allow for concentration measurements.
(§4) Bacteria included E. coli (Top10 Strain, Invitrogen/ThermoFisher) containing a plasmid for ampicillin resistance (Novagen) and/or B. subtilis (ATCC #6051). Bacterial growth was performed in TSB (trypticase soy broth) prepared at 3% w/v (30 g of media in 1 L) from BD Difco unless otherwise noted. Overnight cultures were picked from petri dishes or frozen stock and grown for 14-16 hours at 37 °C in TSB with shaking. E. coli overnight cultures were incubated with 25 μg/mL ampicillin. The overnight cultures were then diluted 1:100 in 25 mL TSB and incubated at 37 °C with shaking for 2.5 h. The culture was pelleted via centrifugation at 1500×g for 10 min at room temperature and resuspended in sterile cold wash buffer (10 mM sodium phosphate buffer and 10 mM sodium chloride, pH 7.4). These resuspended bacteria were then used for radial diffusion, microbroth dilution, and propidium iodide assays. […]
(§5) Microbroth dilution assay
(§6) Microbroth dilution assays were used to determine the minimum inhibitory concentration (MIC) of each peptide for E. coli and B. subtilis (ATCC #6051). A 1:2 serial dilution was prepared for a peptide across the top row of a 96-well plate. 100 μL of bacterial suspension (4 × 10^6 CFU/mL, diluted in sterile wash buffer, 10 mM sodium phosphate buffer and 10 mM sodium chloride, pH 7.4) and 10 μL of peptide were mixed to each well in subsequent rows of the plate. The 11 effective peptide concentrations ranged from 18.2 μM to 1.8x10-2 μM, with DI water used as a control, and each concentration was tested in triplicate per plate. After the bacteria and peptide mixtures were incubated in plates at 37°C for 1 hour, 100 μL of 6% w/v TSB was added to each well. For wells containing E. coli, ampicillin was added at a final concentration of 25 µg/ml. The plate was then incubated overnight (18-24 h) at 37°C. After incubation, OD600nm were measured using the SpectraMax M3 microplate reader (Molecular Devices). […]
(§7) relative permeability = F5/F0
(§8) Each peptide was tested with bacteria grown from at least three distinct overnight […]
(§9) The MTS assay is a colorimetric viability assay for mammalian cells. HEK 293 cells (ATCC CRL-1573) were grown in complete growth medium (EMEM, 10% fetal bovine serum, 1% penicillin-streptomycin). Cells were cultured in a T-75 maintenance flask, fed with fresh media every 1-2 days, and passaged approximately every 5-7 days once cells reached 70-90% confluence. During passaging, HEK 293 cells were plated in a 96-well plate at 20,000 cells/well and incubated for 4-6 hours (37 °C, 95% humidity, 5% CO2). Each column of cells (8 replicates) was then incubated overnight with 18.2 µM peptide or a control. After incubation, media was aspirated and refreshed for each well, […]

B. subtilis = assay type: cell-based, B. subtilis (ATCC #6051); conditions: 1 h, pH 7.4
Experimental: as §1, §2, §3, §4, §5, §6, §7, §8, §9

In the case of `CC[C@H](C)[C@H](NC(=O)[C@H](CCCNC(=N)N)NC(=O)[C@@H](NC(=O)[C@H](CCCCN)NC(=O)[C@H](CCCCN)NC(=O)[C@H](CC(N)=O)NC(=O)[C@H](CC(=O)O)NC(=O)[C@H](CCCNC(=N)N)NC(=O)[C@H](C)N)[C@@H](C)O)C(=O)N[C@@H](Cc1c[nH]c2ccccc12)C(=O)N1CCC[C@H]1C(=O)N[C@@H](CCCNC(=N)N)C(=O)N[C@@H](Cc1c[nH]cn1)C(=O)N[C@@H](CC(C)C)C(=O)N[C@@H](CCC(N)=O)C(=O)N[C@@H](CC(C)C)C(=O)N[C@@H](C)C(=O)N[C@H](C(=O)N[C@@H](CCCNC(=N)N)C(=O)N[C@@H](CC(N)=O)C(=O)N1CCC[C@H]1C(=O)N[C@H](C(=O)N[C@@H](CCCNC(=N)N)C(=O)N[C@@H](CO)C(=O)N[C@@H](CO)C(=O)N[C@@H](CCCNC(=N)N)C(=O)N[C@@H](C)C(=O)NCC(=O)N[C@@H](CC(C)C)C(=O)N[C@@H](CCC(N)=O)C(=O)N[C@@H](Cc1c[nH]c2ccccc12)C(=O)N1CCC[C@H]1C(=O)N[C@H](C(=O)NCC(=O)N[C@@H](CCCNC(=N)N)C(=O)N[C@H](C(=O)N[C@@H](Cc1c[nH]cn1)C(=O)N[C@@H](CCCNC(=N)N)C(=O)N[C@@H](CC(C)C)C(=O)N[C@@H](CC(C)C)C(=O)N[C@@H](CCCNC(=N)N)C(=O)N[C@@H](CCCCN)C(=O)O)C(C)C)C(C)C)[C@@H](C)O)C(C)C` [DesHDAP1-P-BF2 (DPB)], the “MIC against E. coli” value (E. coli) is reported as 1.1 µM (≈ 5.53 µg/mL) and the “MIC against B. subtilis” value (B. subtilis) is reported as 4.6 µM (≈ 23.1 µg/mL).
